The test system of this test is CEM cells HIV-1 protection, formazan growth assay. Briefly: NCI AIDS Antiviral Assay. The settings on record: for IC50: measured here: growth of uninfected CEM cells. As to the method:
The ability of compounds to protect human CEM cells from HIV-1 infection is measured as a screen for new compounds capable of inhibiting the HIV virus. Five concentrations of drug were tested on uninfected and infected cells and cell growth was measured using a soluble formazan assay. […] Compounds that provided at least 50% protection were retested. Compounds that provided at least 50% protection on retest were listed as moderately active. Compounds that reproducibly provided 100% protection were listed as confirmed active. […] Note that the inability to provide protection could be due to toxicity.

Molecules are shown by their SMILES. The source made the active and inactive calls.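 The calls were made as follows: active = compounds giving half or more protection of infected cells from virus-caused growth loss, again on retest; inactive = the rest.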 Where a SMILES comes first, the peptide text is derived from it. [ ]: non-standard residue; d: D form. The star is where a group is joined. ξ: configuration not given here. ξF = NC(Cc1ccccc1)C(=O)O; Cbz = O=C(OCc1ccccc1)*; Aib = CC(C)(N)C(=O)O

As for `CC(CCC=C(c1cc(Cl)c(O)c(C(=O)O)c1)c1cc(Cl)c(O)c(C(=O)O)c1)C1CCC2C3CC[C@@H]4CCCC[C@]4(C)C3CC[C@]12C` (stereo not given in full), the EC50 (usually the concentration needed to bring the measured effect to its halfway point) is > 7.24 µM and the IC50 (as a rule, the concentration needed to halve the response being measured) was > 7.24 µM. `CC1=N/C(=C\c2cccc(Br)c2)C(=O)O1`: the EC50 is > 97.7 µM and the IC50 was found to be 66.1 µM. The corresponding values for `CC1(C)CC(Br)(C(Br)c2ccccc2)C(=O)c2ccccc21` (stereo not given) are > 200 µM and 3.89 µM.

Regarding `Cn1c(=O)oc2cc(C(=S)N3CCCCC3)ccc21`, the EC50 was > 200 µM and the IC50 is > 200 µM. Take `O=C1c2ccccc2C(=O)N1N1C(=O)c2ccccc2C1=O`: the EC50 was > 200 µM and the half-inhibitory concentration (IC50) was > 200 µM.

In the case of `CC(C)(C)C(=O)Oc1ccc(/C=C/C(=O)c2ccc(OC(=O)C(C)(C)C)cc2)cc1`, the EC50 is > 200 µM and the IC50 is 38 µM.

`COC(=O)[C@H](C)N1C(=O)N[C@@H](C(C)C)C1=O`: the EC50 was 0.617 µM and the IC50 was > 200 µM. The corresponding values for `COP1(=O)OCC(C)(C)CO1` are > 1380 µM and > 1380 µM. For `Clc1ccc(N=c2ccc3ccccc3[oH+]2)cc1.Clc1ccc(N=c2ccc3ccccc3[oH+]2)cc1.[Co]`, the result was inactive. Turning to `COC(=O)NN=C(c1ccc(Cl)cc1)c1ccc(Cl)cc1`, the EC50 was 35.5 µM and the IC50 is 174 µM. Taken in the same sequence, the figures for `COc1ccc(S(=O)(=O)NNS(C)(=O)=O)cc1OC` were > 40.7 µM and > 40.7 µM. As to `O=[N+]([O-])c1ccc(/C=C/c2ccc(N=Nc3ccc(/C=C/c4ccc([N+](=O)[O-])cc4S(=O)(=O)O)c(S(=O)(=O)O)c3)cc2S(=O)(=O)O)c(S(=O)(=O)O)c1`, the EC50 was 12.6 µM and the half-maximal inhibitory concentration (IC50) was > 200 µM. As for `COC(=O)C12Oc3ccc(-c4ccc5c(c4O)C(=O)C4=CCC(C)C(O)C4(C(=O)OC)O5)c(O)c3C(=O)C1=CCC(C)C2O` (stereo not given), the EC50 was > 12 µM and the IC50 came out at 1.78 µM. The corresponding values for `CCCCCN(CCCCC)CC(=O)OCC1(C)CCCC2(C)C3CCC(C(C)C)=CC3=CCC12` (stereo not given) are > 200 µM and 35.5 µM. The corresponding values for `C[N+](C)([O-])CCCNc1c2ccccc2nc2cccc([N+](=O)[O-])c12` are > 20 µM and 0.186 µM.

As to `COC(=O)C(C)(C)NC(=O)C(Cc1ccccc1)NC(=O)C(C)(C)NC(=O)OCc1ccccc1` (stereo not given) (Cbz-[Aib]-[ξF]-[Aib]-OMe), the EC50 is 195 µM and the IC50 came out at 741 µM. For `COc1cc2c(c3c1C1Oc4cc(OCc5ccccc5)c(O)cc4C1C(C)(C)O3)CCC(C)(C)O2` (stereo not given), the EC50 was > 200 µM and the concentration for half-maximal inhibition (IC50) was determined as 36.3 µM. Regarding `c1ccc(N2N=NC3C4CC(C5COCC54)C32)cc1` (stereo not given), the EC50 is > 200 µM and the IC50 was > 200 µM.

Take `Cc1ccc(Nc2nc(=O)[nH]c(=O)[nH]2)cc1N=[N+]=[N-]`: the EC50 is > 200 µM and the IC50 is > 200 µM. On to `Cc1c(N)c2ccccc2c(=O)n1C`, for which the EC50 was > 1120 µM and the IC50 came to 302 µM.

With `COC(=O)C1=COC(C)C2CN3CCC4(C(=O)Nc5ccccc54)C3CC12` (stereo not given), the result was inactive.

Take `CC(C)(C)c1ccc2c(c1)CNCCNCc1cc(C(C)(C)C)ccc1OCC1(CO2)COc2ccc(C(C)(C)C)cc2CNCCNCc2cc(C(C)(C)C)ccc2OC1`: the EC50 is > 1.51 µM and the IC50 worked out at 0.219 µM. `C=C1C(C)C2C(Cc3ccccc3)NC(=O)C23C(OC(C)=O)C=CC(C)(O)C(=O)C(C)C/C=C/C3C1O` (stereo not given): the EC50 was > 20 µM and the IC50 was 0.17 µM. For the molecule `O=C1N2CCCSC2=NC1(c1ccccc1)c1ccccc1`, the result was inactive. Same read-out and setting: the entry for `C=C(Cl)CSC(=S)N1CCOCC1` is “inactive”. As to `Brc1ccc(/C=C2\C=Cc3ccccc32)cc1`, the EC50 was > 25.7 µM and the concentration for half-maximal inhibition (IC50) was > 25.7 µM.

`O=C1CCC2(CC(Br)C(=O)c3ccccc32)C(=O)N1` (stereo not given): the EC50 was > 407 µM and the half-inhibitory concentration (IC50) was found to be 81.3 µM. Regarding `CN1CCC2c3c([nH]c4ccccc34)C(C)(C)OC2C1` (stereo not given), the EC50 is > 200 µM and the IC50 is > 200 µM. On to `N#CC(/C(=N\NC(N)=S)C(=O)NC1C2CC3CC(C2)CC1C3)c1ccc(Cl)cc1` (stereo not given), for which the EC50 is > 17 µM and the IC50 is > 17 µM. For the molecule `CC1(CO)C(O)CCC2(C)C1CCC1CC3CC12CCC3(O)CO` (stereo not given), the EC50 was > 275 µM and the IC50 is 0.398 µM. In the case of `CCC(=O)c1ccc2c(c1)N(CCCN1CCN(CCO)CC1)c1ccccc1S2`, the EC50 was > 200 µM and the IC50 came to 9.33 µM. The corresponding values for `COc1ccc(-n2cnnc2-c2nsc3ccccc23)cc1` are > 85.1 µM and 55 µM. As to `O=c1c2ccccc2nc(-c2ccccc2Cl)n1NC1OC(CO)C(O)C(O)C1O` (stereo not given), the outcome was inactive. On to `CC(=O)OCCOCn1cnc2c(Cl)nc(Cl)nc21`, for which the EC50 is > 200 µM and the IC50 is 7.24 µM. The corresponding values for `Cc1ccc(OC2CC(n3cnc4c(=O)[nH]c(Br)nc43)OC2Oc2ccc(C)cc2)cc1` (stereo not given) are > 200 µM and 25.1 µM. Take `C[N+]1(CC(O)(O)C(F)F)CCOCC1`: the EC50 is > 200 µM and the IC50 is > 200 µM. Regarding `CCOC(=O)C(CC(=O)OC)NC(=O)C(CC(=O)OC)NC(=O)C(CC(=O)OC)NC(=O)C(CC(=O)OC)NC(=O)OCc1ccccc1` (stereo not given) (Cbz-D(OMe)D(OMe)D(OMe)D(OMe)-OEt; configuration not given here), the EC50 was > 200 µM and the IC50 was > 200 µM. For the molecule `Cc1c[nH]c(C(=O)O)c1-c1cccn1-c1ccc(Cl)cc1[N+](=O)[O-]`, the EC50 was > 200 µM and the IC50 stood at 87.1 µM. As for `CC(C)CCCC(C)[C@H]1CCC2C3CC=C4C[C@@H](OP(=O)(O)OCCC=C(c5cc(Cl)c(O)c(C(=O)O)c5)c5cc(Cl)c(O)c(C(=O)O)c5)CC[C@]4(C)C3CC[C@@]21C` (stereo not given in full), the EC50 is > 100 µM and the IC50 amounted to 38.9 µM. On to `CC(C)(C)OC(=O)C1=C2C=C(O)C=CC2(C)N(Cc2ccccc2)C1=N` (stereo not given), for which the EC50 was > 2 µM and the IC50 was 0.741 µM. Take `O=C(C1=CCC2(CC1)OCCO2)N(Cc1ccccc1)c1ccccc1I`: the EC50 was > 200 µM and the IC50 was determined as 32.4 µM.

For the molecule `O=C1C=Cc2noc3cccc1c23`, the outcome was inactive.

For `CC(C)(C)OC(=O)N[C@H]1CC(O)c2ccccc2N(CC(=O)O)C1=O` (stereo not given in full), the EC50 is > 251 µM and the IC50 was > 251 µM. Turning to `C/C=C(\C)C(=O)O[C@@H]1CC[C@]2(CO2)C2(COC(C)=O)C(OC(C)=O)CC(C)[C@](C)(C[C@H](O)C3=CC(=O)OC3)[C@@H]12` (stereo not given in full), the outcome was inactive. `Cn1nc2ccc(Nc3cc(=O)[nH]c4ccc5nn(C)nc5c34)cc2n1`: the EC50 was > 200 µM and the IC50 came out at 95.5 µM. For `O=C(C1OC1c1ccc(O)cc1)C12CC3CC(CC(C3)C1)C2` (stereo not given), the EC50 was > 200 µM and the IC50 was 52.5 µM. Taken in the same sequence, the figures for `COc1ccc(/C=C2/CSC/C(=C/c3ccc(OC)c(OC)c3)C2=O)cc1OC` were > 9.12 µM and 4.9 µM.

In the case of `C=C(C)C(OC(C)=O)C(OCC)c1c(OC)ccc2ccc(=O)oc12` (stereo not given), the EC50 is > 50.1 µM and the IC50 was > 50.1 µM. `CCCNC(=O)c1nc(SC)sc1NC(=O)c1ccccc1`: the EC50 is > 200 µM and the IC50 is > 200 µM. With `O=C(/C=C/c1cc2ccccc2o1)N1CCN(c2ccccn2)CC1`, the EC50 is > 200 µM and the IC50 was 191 µM. Consider `C=C1[C@@H](OC(C)=O)[C@H]2[C@@H](OC(C)=O)[C@@](C)(OC(C)=O)C[C@]2(OC(C)=O)C(=O)[C@@H](C)/C=C/C(C)(C)C(=O)C[C@H]1OC(C)=O`, for which the EC50 was > 200 µM and the IC50 is 72.4 µM.

Take `CCCCCc1cc(OC(=O)c2c(O)cc(OC)cc2CCCCC)cc(O)c1C(=O)O`: the EC50 was > 295 µM and the IC50 turned out to be 29.5 µM. The corresponding values for `Cc1oc(N)c(S(=O)(=O)c2ccc(Cl)cc2)c1C` are > 200 µM and 34.7 µM. Taken in the same sequence, the figures for `CC/C=C/C(=O)CC(O)(C(F)(F)F)C(F)(F)F` were > 200 µM and > 200 µM. Regarding `CCOC(=O)C(=Cc1cccc(C#N)c1)C(=O)OCC`, the EC50 is > 132 µM and the 50% inhibitory concentration (IC50) stood at 8.51 µM. In the case of `CCCCCCCCNC(=O)/C(=C\c1ccc(/C=C(/NC(=O)c2ccccc2)C(=O)NCCCCCCCC)cc1)NC(=O)c1ccccc1`, the EC50 is > 100 µM and the IC50 stood at 23.4 µM. Taken in the same sequence, the figures for `CC1=C(C(=O)Nc2cc(F)c(F)cc2F)C(c2ccc(N(C)C)cc2)C(C(=O)Nc2cc(F)c(F)cc2F)=C(C)N1` were > 23.4 µM and > 23.4 µM.

Take `O=C(Sc1c(-c2ccccc2)c(=O)n(-c2ccccc2)c(=S)n1-c1ccccc1)c1ccccc1`: the EC50 was > 200 µM and the IC50 was found to be 8.51 µM. Taken in the same sequence, the figures for `C=C(CCC(Cl)[C@@H]1COC(/C=C/C)O1)[Si](C)(C)C` (stereo not given in full) were > 123 µM and > 123 µM. The corresponding values for `Oc1ccc([C@H]2c3c(O)cc(O)cc3C3c4c(cc(O)cc4[C@@H]2[C@H]2c4cc(O)cc5c4C(c4cc(O)cc(O)c4[C@@H]2c2ccc(O)cc2)[C@@H](c2ccc(O)cc2)O5)O[C@@H]3c2ccc(O)cc2)cc1` (stereo not given in full) are > 100 µM and 13.8 µM. With `Cn1cccc(C(=O)c2ccccc2)c1=O`, the outcome was inactive. As for `CC(=O)Nc1ccc(-c2nnc(SCC(=O)Nc3ccc(C)cc3)o2)cc1`, the EC50 is > 67.6 µM and the IC50 is 11.7 µM. On to `CC[N+]1(C)CCC(O)(/C=C/c2ccc(OC)cc2)C(C(=O)/C=C/c2ccc(OC)cc2)C1` (stereo not given), for which the EC50 is > 200 µM and the IC50 was 1.12 µM.

On to `Fc1ccc(NC(=S)Nc2ccccn2)cc1`, for which the EC50 was > 158 µM and the IC50 was 129 µM.

Values taken from PubChem BioAssay AID179 (DTP/NCI, 2004).
